Test systems include KM12 colon; MALME-3M melanoma; OVCAR-8 ovarian; OVCAR-5 ovarian; SW-620 colon; SK-MEL-2 melanoma; SF-295 CNS; HOP-62 NSCLC.
Holding throughout (assay): inhibition of tumour cell growth, NCI panel, 48 h

Molecules are shown by their SMILES. Where “and” joins values, the source holds several entries; their conditions need not be identical. Equal values may be shown once.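 Where inhibition never reached the appropriate level, the endpoint shown equals the highest concentration tested. Otherwise, values were interpolated linearly from a five-concentration, 48-hour dose response in 96-well plates. Abbreviation: GI50, concentration required for 50% inhibition of growth. Definition used: TGI = concentration required for complete inhibition of growth.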 Where only a bound is given, the exact number is not on record here.

Consider `CN1C(=O)C(N=Nc2ccc([N+](=O)[O-])cc2)SC1=S` (stereo not given), for which the GI50 with KM12 colon is 1.81 µM and 2.53 µM; with MALME-3M melanoma, 3.26 µM and 18.5 µM; in the assay with OVCAR-8 ovarian it was 4.38 µM and 11 µM; in the assay with OVCAR-5 ovarian, 10.6 µM and 15.4 µM; in the assay on SW-620 colon it was 2.53 µM and 8.17 µM; with SK-MEL-2 melanoma, 8.98 µM and 5.29 µM. Further, the GI50 with SF-295 CNS was 1.62 µM and 3.04 µM; with HOP-62 NSCLC it was 9.55 µM and 12.2 µM. Besides, the TGI in the assay with KM12 colon is 17.4 µM and > 100 µM; in the assay on MALME-3M melanoma it was 19.5 µM and > 100 µM; in the assay with OVCAR-8 ovarian, more than 100 µM; in the assay on OVCAR-5 ovarian, > 100 µM and 99.6 µM; in the assay with SW-620 colon it was more than 100 µM; in the assay with SK-MEL-2 melanoma, 37.8 µM and 42.5 µM. Moreover, the TGI was 6.27 µM and 24.9 µM in the assay on SF-295 CNS; more than 100 µM in the assay on HOP-62 NSCLC.

In the case of `O=C(O)CN1C(=O)OC(c2ccccc2)C1=O` (stereo not given), the TGI in the assay with KM12 colon, in the assay with MALME-3M melanoma, in the assay with OVCAR-8 ovarian, in the assay on OVCAR-5 ovarian, in the assay on SW-620 colon and in the assay on SK-MEL-2 melanoma was more than 100 µM in each case. Also, the TGI in the assay on SF-295 CNS and in the assay on HOP-62 NSCLC was more than 100 µM in each case.

As to `Cn1cc(-c2csc(-c3ccccc3)n2)c2cccnc21`, the GI50 with KM12 colon is 12.5 µM; in the assay with MALME-3M melanoma, 16.4 µM; in the assay on OVCAR-8 ovarian, 20.3 µM; with OVCAR-5 ovarian it was 14 µM; in the assay with SW-620 colon, 14.9 µM; in the assay with SK-MEL-2 melanoma, 18.5 µM. Also, the GI50 in the assay on SF-295 CNS is 15 µM; with HOP-62 NSCLC, 15.5 µM. For the same compound, the TGI is 25 µM with KM12 colon; 42.6 µM in the assay on MALME-3M melanoma; 52.4 µM in the assay on OVCAR-8 ovarian; 32.7 µM with OVCAR-5 ovarian; 30.1 µM in the assay on SW-620 colon; 42.3 µM in the assay with SK-MEL-2 melanoma. Besides, the TGI in the assay with SF-295 CNS worked out at 33.7 µM; in the assay with HOP-62 NSCLC, 29.5 µM.

Regarding `COC(=O)C1C(C(=O)O)C2(c3ccccc3)C(=O)C1(c1ccccc1)C(c1ccc(OC)cc1)=C2c1ccc(OC)cc1` (stereo not given), the GI50 is 27 µM in the assay with KM12 colon; 29.8 µM in the assay with MALME-3M melanoma; 15.9 µM with OVCAR-8 ovarian; 20.8 µM with OVCAR-5 ovarian; 23.2 µM with SW-620 colon; 20.5 µM in the assay on SK-MEL-2 melanoma. The GI50 in the assay with SF-295 CNS was 30.3 µM; in the assay with HOP-62 NSCLC, 20.4 µM. Moreover, the TGI in the assay with KM12 colon came to 74.6 µM; in the assay on MALME-3M melanoma, 75.7 µM; in the assay with OVCAR-8 ovarian it was 30.8 µM; in the assay on OVCAR-5 ovarian, 45.9 µM; with SW-620 colon, 46.6 µM; in the assay on SK-MEL-2 melanoma it was 44 µM. Further, the TGI in the assay with SF-295 CNS was 77.2 µM; in the assay on HOP-62 NSCLC, 47.5 µM.

Consider `CCN1C(=O)/C(=c2\sc3n(c2=O)C2C(NN=3)N(CC)C(=O)N2CC)c2ccccc21` (stereo not given), for which the GI50 with KM12 colon was 0.469 µM; with MALME-3M melanoma it was 0.596 µM; in the assay on OVCAR-8 ovarian, 0.665 µM; with OVCAR-5 ovarian, 2.02 µM; in the assay with SW-620 colon, 0.426 µM; in the assay with SK-MEL-2 melanoma, 3.21 µM. In addition, the values for the GI50 in the assay with SF-295 CNS and with HOP-62 NSCLC were 0.377 µM and 0.786 µM, respectively. Also, the TGI in the assay on KM12 colon is more than 73.4 µM; in the assay on MALME-3M melanoma it was more than 100 µM; with OVCAR-8 ovarian, more than 100 µM; in the assay with OVCAR-5 ovarian, more than 100 µM; in the assay on SW-620 colon, more than 100 µM; in the assay on SK-MEL-2 melanoma, 44.2 µM. Further, the values for the TGI in the assay with SF-295 CNS and in the assay with HOP-62 NSCLC were 6.64 µM and more than 42.6 µM, respectively.

Turning to `CC(=O)Oc1ccc(C2OC(c3ccc4ccccc4c3OC(C)=O)=NN2C(C)=O)c(OC(C)=O)c1` (stereo not given), the GI50 in the assay on KM12 colon is 0.536 µM; in the assay with MALME-3M melanoma it was 0.407 µM; with OVCAR-8 ovarian it was 0.363 µM; in the assay with OVCAR-5 ovarian it was 2.22 µM; in the assay on SW-620 colon it was 0.455 µM; in the assay on SK-MEL-2 melanoma it was 0.602 µM. Further, the GI50 is 0.295 µM in the assay on SF-295 CNS and 0.513 µM in the assay with HOP-62 NSCLC. For the same compound, the TGI was more than 57.6 µM in the assay with KM12 colon; 5.12 µM in the assay on MALME-3M melanoma; more than 100 µM with OVCAR-8 ovarian; more than 100 µM with OVCAR-5 ovarian; more than 43.3 µM in the assay on SW-620 colon; more than 48.7 µM in the assay with SK-MEL-2 melanoma. The TGI in the assay with SF-295 CNS was 14.8 µM; in the assay with HOP-62 NSCLC, more than 100 µM.

Take `CC(C)c1cnc(-c2cc(Cl)ccc2F)cc1Nc1ccncc1C(=O)NC(CO)CO`: the GI50 was 17.7 µM in the assay with KM12 colon; 17.2 µM in the assay on MALME-3M melanoma; 14.6 µM with OVCAR-8 ovarian; 16.2 µM in the assay on OVCAR-5 ovarian; 19.6 µM in the assay on SW-620 colon; 18 µM with SK-MEL-2 melanoma. The values for the GI50 with SF-295 CNS and with HOP-62 NSCLC were 13.1 µM and 12.8 µM, respectively. The TGI amounted to 37.4 µM in the assay with KM12 colon; 34.4 µM with MALME-3M melanoma; 49.8 µM in the assay on OVCAR-8 ovarian; 39.6 µM in the assay with OVCAR-5 ovarian; 39.5 µM in the assay on SW-620 colon; 38.5 µM in the assay on SK-MEL-2 melanoma. Further, the TGI with SF-295 CNS was 26.6 µM; with HOP-62 NSCLC it was 32.9 µM.

On to `COc1ccc(-c2nc3sccn3c2-c2ccnc(NCCNS(=O)(=O)c3ccc(C(F)(F)F)cc3)n2)cc1`, for which the GI50 was 1.36 µM with KM12 colon; 2.35 µM in the assay on MALME-3M melanoma; 2.85 µM in the assay with OVCAR-8 ovarian; 9.38 µM in the assay on OVCAR-5 ovarian; 4.24 µM with SW-620 colon; 3.04 µM with SK-MEL-2 melanoma. For the same compound, the GI50 was 2.24 µM with SF-295 CNS and 13.7 µM with HOP-62 NSCLC. Also, the TGI with KM12 colon was 36.2 µM; in the assay on MALME-3M melanoma it was 5.22 µM; in the assay on OVCAR-8 ovarian, more than 100 µM; with OVCAR-5 ovarian it was more than 100 µM; in the assay on SW-620 colon, 38.9 µM; with SK-MEL-2 melanoma it was 9.26 µM. Besides, the TGI in the assay on SF-295 CNS was 5.58 µM; in the assay with HOP-62 NSCLC, more than 100 µM.

Turning to `Nc1nc(N)c2cc(S(=O)(=O)c3ccc4ccccc4c3)ccc2n1`, the TGI in the assay with KM12 colon was more than 100 µM; in the assay with MALME-3M melanoma, more than 100 µM; with OVCAR-8 ovarian, 49.6 µM; with OVCAR-5 ovarian it was more than 100 µM; in the assay with SW-620 colon it was more than 100 µM; with SK-MEL-2 melanoma, more than 77.8 µM. The TGI with SF-295 CNS was more than 56.3 µM; in the assay on HOP-62 NSCLC it was 30.3 µM. The GI50 in the assay on SW-620 colon is 0.611 µM.

On to `CC[C@]12C=CCN3CC[C@]4(C(=C(C(=O)OC)C1)Nc1cc5c(cc14)[C@@H]1[C@H](O5)[C@@H](O)[C@@]4(CC)CC(C(=O)OC)=C5Nc6ccccc6[C@@]56CCN1[C@@H]46)[C@@H]32`, for which the GI50 in the assay on KM12 colon is 0.76 µM and 0.471 µM; with MALME-3M melanoma, 0.412 µM and 0.431 µM; with OVCAR-8 ovarian, 0.648 µM and 0.449 µM; in the assay on OVCAR-5 ovarian, 0.749 µM and 0.826 µM; in the assay on SW-620 colon, 0.868 µM and 0.495 µM; in the assay on SK-MEL-2 melanoma, 1.13 µM and 1.18 µM. Besides, the GI50 in the assay on SF-295 CNS was 1.17 µM and 0.535 µM; with HOP-62 NSCLC, 0.319 µM. In addition, the TGI was 8.41 µM and 5.92 µM in the assay with KM12 colon; 3.45 µM and 15.2 µM in the assay with MALME-3M melanoma; 25 µM and > 100 µM in the assay on OVCAR-8 ovarian; 25 µM and 21.3 µM in the assay with OVCAR-5 ovarian; 13.5 µM and 7.85 µM with SW-620 colon; 25 µM and > 100 µM with SK-MEL-2 melanoma. In addition, the TGI with SF-295 CNS was 25 µM and 12.8 µM; in the assay with HOP-62 NSCLC it was more than 100 µM.

These data come from PubChem BioAssay (NCI).
